Experiment [1] can be described thus: DRUGMATRIX: Calcium Channel Type L, Benzothiazepine radioligand binding (ligand: [3H] Diltiazem). Format: cell membranes, Rattus norvegicus, Wistar, Brain, Membrane. Conditions: Not Active = under 50% inhibition at 10 µM.
For another experiment, the target named is Melanocortin receptor 4 (Homo sapiens, UniProt P32245). Format: cell membranes, Membrane. Conditions: hek293. Also: in other assays of this panel Not Active means under 50% inhibition at 10 µM.
For another experiment, the target named is T1, Adenosine receptor A1 (Homo sapiens, UniProt P30542).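 Also: radioligand binding assay at the adenosine A1 receptor, with DPCPX serving as the labelled ligand; in other assays of this panel Not Active means under 50% inhibition at 10 µM.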
T1 sequence (P30542 whole entry): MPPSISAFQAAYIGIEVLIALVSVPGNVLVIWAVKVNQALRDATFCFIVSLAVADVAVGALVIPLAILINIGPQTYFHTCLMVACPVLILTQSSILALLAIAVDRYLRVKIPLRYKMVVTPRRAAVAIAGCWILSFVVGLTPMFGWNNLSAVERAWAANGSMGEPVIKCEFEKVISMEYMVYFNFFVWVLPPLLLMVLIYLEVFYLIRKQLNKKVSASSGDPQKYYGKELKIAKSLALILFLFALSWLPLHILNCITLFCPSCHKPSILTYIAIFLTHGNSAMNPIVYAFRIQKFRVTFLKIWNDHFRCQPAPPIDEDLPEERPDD
In kind it is cell membranes, Membrane. Conditions: cho.

The target of experiment [2] is Tyrosine-protein kinase Fyn (Homo sapiens, UniProt P06241). Description: biochemical. In kind it is cell-based, Insect cells.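 Also: enzymatic inhibition of Fyn kinase activity measured with Poly(Glu:Tyr) as the phosphorylation substrate; in other assays of this panel Not Active means under 50% inhibition at 10 µM.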
Experiment [3] in a line: DRUGMATRIX: Calcium Channel Type L, Phenylalkylamine radioligand binding (ligand: [3H] (-)-Desmethoxyverapamil (D-888)). Conditions: Not Active = under 50% inhibition at 10 µM. Format: cell membranes, Rattus norvegicus, Wistar, Brain, Membrane.
Another experiment deals with T2, Caspase-1 (Homo sapiens, UniProt P29466).
T2 sequence (P29466 whole entry): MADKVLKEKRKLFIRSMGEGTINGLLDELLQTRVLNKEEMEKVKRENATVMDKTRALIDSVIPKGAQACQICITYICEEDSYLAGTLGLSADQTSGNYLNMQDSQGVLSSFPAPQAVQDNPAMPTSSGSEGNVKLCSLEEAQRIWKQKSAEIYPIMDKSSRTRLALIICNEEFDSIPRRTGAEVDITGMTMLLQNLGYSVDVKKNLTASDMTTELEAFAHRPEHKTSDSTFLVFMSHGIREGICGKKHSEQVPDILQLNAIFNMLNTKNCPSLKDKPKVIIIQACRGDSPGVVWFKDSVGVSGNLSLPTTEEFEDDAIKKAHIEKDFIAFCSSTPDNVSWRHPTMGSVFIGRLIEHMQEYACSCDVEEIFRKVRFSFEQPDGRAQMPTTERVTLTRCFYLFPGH
Also noted: species or system Escherichia coli.

In experiment [4] the target is Delta-type opioid receptor (Homo sapiens, UniProt P41143). In kind it is cell membranes, HEK293, Membrane. Also: in other assays of this panel Not Active means under 50% inhibition at 10 µM.
For experiment [5], the target named is T3, Cysteinyl leukotriene receptor 1 (Homo sapiens, UniProt Q9Y271). Also: in other assays of this panel Not Active means under 50% inhibition at 10 µM.
T3 sequence (Q9Y271 whole entry): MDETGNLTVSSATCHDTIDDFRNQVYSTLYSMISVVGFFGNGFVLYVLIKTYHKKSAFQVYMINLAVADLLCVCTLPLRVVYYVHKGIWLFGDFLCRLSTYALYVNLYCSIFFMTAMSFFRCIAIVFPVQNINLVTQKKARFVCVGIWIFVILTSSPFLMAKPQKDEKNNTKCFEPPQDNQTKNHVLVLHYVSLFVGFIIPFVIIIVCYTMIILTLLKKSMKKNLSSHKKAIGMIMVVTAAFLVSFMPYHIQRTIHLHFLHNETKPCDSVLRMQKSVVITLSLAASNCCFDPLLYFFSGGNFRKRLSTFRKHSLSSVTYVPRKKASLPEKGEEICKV
In kind it is cell membranes, CHO-K1, Membrane.

Sequence of Melanocortin receptor 4 (P32245 whole entry): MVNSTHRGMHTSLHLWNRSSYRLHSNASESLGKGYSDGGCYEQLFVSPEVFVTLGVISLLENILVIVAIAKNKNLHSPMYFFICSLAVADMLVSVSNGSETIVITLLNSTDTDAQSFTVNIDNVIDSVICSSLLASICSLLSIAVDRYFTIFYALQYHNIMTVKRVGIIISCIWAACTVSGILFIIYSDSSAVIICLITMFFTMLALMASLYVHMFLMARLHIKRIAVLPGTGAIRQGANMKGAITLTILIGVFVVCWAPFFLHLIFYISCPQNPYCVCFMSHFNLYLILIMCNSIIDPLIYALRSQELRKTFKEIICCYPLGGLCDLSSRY
Sequence of Tyrosine-protein kinase Fyn (P06241 whole entry): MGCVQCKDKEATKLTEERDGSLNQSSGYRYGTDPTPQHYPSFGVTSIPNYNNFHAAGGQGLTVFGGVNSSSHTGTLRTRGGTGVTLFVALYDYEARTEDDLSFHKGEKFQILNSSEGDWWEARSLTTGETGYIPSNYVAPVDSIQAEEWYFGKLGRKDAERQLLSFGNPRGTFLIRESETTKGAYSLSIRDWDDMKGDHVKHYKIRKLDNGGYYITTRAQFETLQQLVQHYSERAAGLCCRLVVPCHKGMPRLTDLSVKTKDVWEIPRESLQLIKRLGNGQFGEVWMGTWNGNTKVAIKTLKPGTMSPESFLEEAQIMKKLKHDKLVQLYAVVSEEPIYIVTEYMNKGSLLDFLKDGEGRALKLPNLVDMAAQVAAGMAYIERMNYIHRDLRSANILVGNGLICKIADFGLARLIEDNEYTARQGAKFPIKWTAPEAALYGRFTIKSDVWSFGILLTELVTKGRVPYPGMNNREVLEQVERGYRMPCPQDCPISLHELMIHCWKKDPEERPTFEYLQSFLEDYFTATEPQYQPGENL
Sequence of Delta-type opioid receptor (P41143 whole entry): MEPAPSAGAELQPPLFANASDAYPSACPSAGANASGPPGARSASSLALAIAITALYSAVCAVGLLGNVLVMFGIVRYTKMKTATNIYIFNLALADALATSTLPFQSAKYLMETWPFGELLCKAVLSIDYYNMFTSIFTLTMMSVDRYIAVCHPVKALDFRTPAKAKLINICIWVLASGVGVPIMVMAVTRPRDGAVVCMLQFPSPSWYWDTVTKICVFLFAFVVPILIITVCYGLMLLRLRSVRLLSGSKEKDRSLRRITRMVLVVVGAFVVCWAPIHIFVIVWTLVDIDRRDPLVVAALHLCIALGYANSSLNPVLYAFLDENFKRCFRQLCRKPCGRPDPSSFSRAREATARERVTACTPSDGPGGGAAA

A word on the IC50: it is the concentration at which inhibition is half-maximal. One may read the Ki as the dissociation constant of the complex between target and ligand, obtained from inhibition or displacement. In the case of `CC1=C(CC(=O)O)c2cc(F)ccc2/C1=C\c1ccc([S+](C)[O-])cc1` (stereo unspecified), the half-maximal inhibitory concentration (IC50) entry (in experiment [1]; at Melanocortin receptor 4; at Adenosine receptor A1; in experiment [2] (insect cells); in experiment [3]; at Caspase-1) was “Not Active” each time. Besides, the IC50 entry in experiment [4] (hek293) and in experiment [5] (cho-k1) was “Not Active” throughout. For the same compound, the inhibition constant (Ki) entry in experiment [1] and in experiment [3] was “Not Active” each time.

With `N[C@H](CSC(=S)NCc1ccccc1)C(=O)O`, the half-maximal inhibitory concentration (IC50) result (in experiment [1]; at Melanocortin receptor 4; on Adenosine receptor A1; in experiment [2] (insect cells); in experiment [3]; against Caspase-1) was “Not Active” each time. Moreover, the IC50 result in experiment [4] (hek293) and in experiment [5] (cho-k1) was “Not Active” in each case. In addition, the Ki entry in experiment [1] and in experiment [3] was “Not Active” each time.

For `CC(=O)N[C@@H]1[C@H](Oc2c3cc4cc2Oc2ccc(cc2Cl)[C@@H](O[C@@H]2O[C@@H](CO)[C@@H](O)[C@H](O)[C@@H]2NC(C)=O)[C@@H]2NC(=O)[C@H](NC(=O)[C@@H]4NC(=O)[C@H]4NC(=O)[C@@H](Cc5ccc(c(Cl)c5)O3)NC(=O)[C@H](N)c3ccc(O)c(c3)Oc3cc(O)cc4c3)c3ccc(O)c(c3)-c3c(O[C@H]4O[C@H](CO)[C@@H](O)[C@@H](O)[C@@H]4O)cc(O)cc3[C@@H](C(=O)O)NC2=O)O[C@@H](CO)[C@@H](O)[C@@H]1O`, the 50% inhibitory concentration (IC50) entry (in experiment [1]; against Melanocortin receptor 4; on Adenosine receptor A1; in experiment [2] (insect cells); in experiment [3]; on Caspase-1) was “Not Active” in each case. Further, the IC50 result in experiment [4] (hek293) and in experiment [5] (cho-k1) was “Not Active” each time. In addition, the Ki entry in experiment [1] and in experiment [3] was “Not Active” each time.

As to `Clc1ccc2c(c1)C(N1CCNCC1)=Nc1ccccc1O2` [AMOXAPINE], the IC50 result (at Melanocortin receptor 4; on Adenosine receptor A1; in experiment [2] (insect cells); on Caspase-1; in experiment [4] (hek293); in experiment [5] (cho-k1)) was “Not Active” in each case.

As to `COc1cc2c(c(OC)c1OC)-c1ccc(OC)c(=O)cc1[C@@H](NC(C)=O)CC2` [COLCHICINE], the concentration for half-maximal inhibition (IC50) result (at Melanocortin receptor 4; against Adenosine receptor A1; in experiment [2] (insect cells); against Caspase-1; in experiment [4] (hek293); in experiment [5] (cho-k1)) was “Not Active” in each case.

`CN1CCC(=C2c3ccccc3C=Cc3ccccc32)CC1` [CYPROHEPTADINE]: the IC50 entry (against Melanocortin receptor 4; at Adenosine receptor A1; in experiment [2] (insect cells); at Caspase-1; in experiment [4] (hek293); in experiment [5] (cho-k1)) was “Not Active” each time.

Take `CC/C(=C(/CC)c1ccc(O)cc1)c1ccc(O)cc1` [DIETHYLSTILBESTROL]: the IC50 entry was “Not Active” against Melanocortin receptor 4, 14200 nM in experiment [2] (read-out: IC50), “Not Active” at Caspase-1 and 17700 nM in experiment [5] (read-out: IC50). For the same compound, the Ki in experiment [5] (read-out: Ki) worked out at 8870 nM.

In the case of `CC(=O)N1CCN(c2ccc(OCC3COC(Cn4ccnc4)(c4ccc(Cl)cc4Cl)O3)cc2)CC1` (stereo unspecified) [KETOCONAZOLE], the half-maximal inhibitory concentration (IC50) in experiment [1] (read-out: IC50) was 32000 nM; at Melanocortin receptor 4, “Not Active”; against Adenosine receptor A1 it was “Not Active”; in experiment [2] (insect cells), “Not Active”; in experiment [3], “Not Active”; against Caspase-1, “Not Active”. Further, the results for the concentration for half-maximal inhibition (IC50) in experiment [4] (read-out: IC50) and in experiment [5] (cho-k1) were 12800 nM and “Not Active”, respectively. Moreover, the inhibition constant Ki in experiment [1] (read-out: Ki) is 28500 nM; in experiment [3], “Not Active”; in experiment [4] (read-out: Ki) it was 4510 nM.

On to `C=CCN1CC[C@]23c4c5ccc(O)c4O[C@H]2C(=O)CC[C@@]3(O)[C@H]1C5` [NALOXONE], for which the IC50 result (against Melanocortin receptor 4; against Adenosine receptor A1; in experiment [2] (insect cells); at Caspase-1; in experiment [5] (cho-k1)) was “Not Active” each time.

Consider `COCCOC(=O)C1=C(C)NC(C)=C(C(=O)OC(C)C)C1c1cccc([N+](=O)[O-])c1` (stereo unspecified) [NIMODIPINE], for which the concentration for half-maximal inhibition (IC50) in experiment [1] (read-out: IC50) is 2.09 nM; at Melanocortin receptor 4, “Not Active”; against Adenosine receptor A1, “Not Active”; in experiment [2] (insect cells), “Not Active”; in experiment [3], “Not Active”; against Caspase-1 it was “Not Active”. In addition, the IC50 entry in experiment [4] (hek293) and in experiment [5] (cho-k1) was “Not Active” in each case. For the same compound, the inhibitory constant (Ki) in experiment [1] (read-out: Ki) was 1.86 nM; in experiment [3] it was “Not Active”.

With `CC(C)NCC(O)COc1cccc2ccccc12` (stereo unspecified) [PROPRANOLOL], the IC50 entry (at Melanocortin receptor 4; at Adenosine receptor A1; in experiment [2] (insect cells); against Caspase-1; in experiment [4] (hek293); in experiment [5] (cho-k1)) was “Not Active” throughout.

`COCCCOc1ccnc(C[S+]([O-])c2nc3ccccc3[nH]2)c1C` (stereo unspecified) [RABEPRAZOLE]: the IC50 result (in experiment [1]; at Melanocortin receptor 4; at Adenosine receptor A1; in experiment [2] (insect cells); in experiment [3]; against Caspase-1) was “Not Active” in each case. The IC50 entry in experiment [4] (hek293) and in experiment [5] (cho-k1) was “Not Active” each time. The Ki result in experiment [1] and in experiment [3] was “Not Active” in each case.

On to `O=C(c1ccc(OCCN2CCCCC2)cc1)c1c(-c2ccc(O)cc2)sc2cc(O)ccc12` [RALOXIFENE], for which the results for the inhibition constant Ki in experiment [1] (read-out: Ki) and in experiment [3] (read-out: Ki) were 368 nM and 144 nM, respectively. Moreover, the IC50 entry on Melanocortin receptor 4 was “Not Active”; at Adenosine receptor A1, “Not Active”; in experiment [2] (read-out: IC50), 3670 nM; in experiment [3] (read-out: IC50) it was 148 nM; against Caspase-1 it was “Not Active”; in experiment [5] (cho-k1), “Not Active”.

For the compound `CNC(=C[N+](=O)[O-])NCCSCc1ccc(CN(C)C)o1` [RANITIDINE], the IC50 entry (in experiment [1]; on Melanocortin receptor 4; against Adenosine receptor A1; in experiment [2] (insect cells); in experiment [3]; on Caspase-1) was “Not Active” throughout. For the same compound, the half-inhibitory concentration (IC50) result in experiment [4] (hek293) and in experiment [5] (cho-k1) was “Not Active” each time. The inhibitory constant (Ki) result in experiment [1] and in experiment [3] was “Not Active” throughout.

Consider `CO[C@H]1/C=C/O[C@@]2(C)Oc3c(C)c(O)c4c(c3C2=O)C2=NC3(CCN(CC(C)C)CC3)NC2=C(NC(=O)/C(C)=C\C=C\[C@H](C)[C@H](O)[C@@H](C)[C@@H](O)[C@@H](C)[C@H](OC(C)=O)[C@@H]1C)C4=O` [RIFABUTIN], for which the IC50 result (in experiment [1]; against Melanocortin receptor 4; on Adenosine receptor A1; in experiment [2] (insect cells); in experiment [3]; at Caspase-1) was “Not Active” throughout. For the same compound, the 50% inhibitory concentration (IC50) entry in experiment [4] (hek293) and in experiment [5] (cho-k1) was “Not Active” in each case. Also, the inhibition constant (Ki) result in experiment [1] and in experiment [3] was “Not Active” throughout.

`CC(C)c1nc(CN(C)C(=O)N[C@H](C(=O)N[C@@H](Cc2ccccc2)C[C@H](O)[C@H](Cc2ccccc2)NC(=O)OCc2cncs2)C(C)C)cs1` [RITONAVIR]: the IC50 entry (in experiment [1]; against Melanocortin receptor 4; against Adenosine receptor A1; in experiment [2] (insect cells); against Caspase-1; in experiment [4] (hek293)) was “Not Active” throughout. In experiment [5] (cho-k1), the 50% inhibitory concentration (IC50) result is recorded as “Not Active”. Besides, the Ki result in experiment [1] is reported as “Not Active”.

Take `CC(C)CC(N(C)C)C1(c2ccc(Cl)cc2)CCC1` (stereo unspecified) [SIBUTRAMINE]: the IC50 in experiment [1] (read-out: IC50) is 809 nM; against Melanocortin receptor 4, “Not Active”; against Adenosine receptor A1, “Not Active”; in experiment [2] (insect cells), “Not Active”; in experiment [3] (read-out: IC50), 2720 nM; on Caspase-1, “Not Active”. Moreover, the 50% inhibitory concentration (IC50) entry in experiment [4] (hek293) and in experiment [5] (cho-k1) was “Not Active” in each case. Moreover, the figures for the inhibition constant Ki in experiment [1] (read-out: Ki) and in experiment [3] (read-out: Ki) were 719 nM and 2650 nM, respectively.

Values taken from ChEMBL document CHEMBL1909046, “DrugMatrix in vitro pharmacology data”.
